Assay: xn = mol fraction of the nth substance listed
Conditions: 101 kPa

CCCCCCCCCCCCCC[n+]1ccccc1.O=C([O-])C(O)c1ccccc1 + CC(C)C[C@H](N)C(=O)O + O
electrical conductivity [S/m]
Conditions | 293.15 K | 298.15 K | 303.15 K | 308.15 K | 313.15 K
x1 = 4.89e-06, x2 = 0.0009002 | 0.00294 | 0.00331 | 0.00369 | 0.0041 | 0.0045
x1 = 5.65e-06, x2 = 0.001799 | 0.00333 | 0.00365 | 0.004 | 0.00436 | 0.0047
x1 = 6.85e-06, x2 = 0 | 0.00248 | 0.00278 | 0.00309 | 0.0034 | 0.0037
x1 = 1.069e-05, x2 = 0.0009002 | 0.00459 | 0.0052 | 0.00582 | 0.0064 | 0.0071
x1 = 1.13e-05, x2 = 0.001799 | 0.00474 | 0.00522 | 0.00572 | 0.0065 | 0.0071
x1 = 1.424e-05, x2 = 0 | 0.00472 | 0.00529 | 0.00587 | 0.0065 | 0.0071
x1 = 1.54e-05, x2 = 0.0009002 | 0.0059 | 0.00666 | 0.0074 | 0.0083 | 0.0091
x1 = 1.695e-05, x2 = 0.001799 | 0.00622 | 0.00689 | 0.0075 | 0.0086 | 0.0093
x1 = 2.084e-05, x2 = 0.0009002 | 0.00743 | 0.0084 | 0.0093 | 0.0104 | 0.0114
x1 = 2.126e-05, x2 = 0 | 0.00671 | 0.0076 | 0.0084 | 0.0093 | 0.0101
x1 = 2.205e-05, x2 = 0.001799 | 0.0077 | 0.0086 | 0.0094 | 0.0106 | 0.0116
x1 = 2.519e-05, x2 = 0.0009002 | 0.0086 | 0.0097 | 0.0107 | 0.012 | 0.0132
x1 = 2.733e-05, x2 = 0.001799 | 0.0091 | 0.0102 | 0.0111 | 0.0125 | 0.0137
x1 = 2.811e-05, x2 = 0 | 0.0086 | 0.0097 | 0.0108 | 0.0122 | 0.0131
x1 = 2.972e-05, x2 = 0.0009002 | 0.0098 | 0.0111 | 0.0124 | 0.0138 | 0.0152
x1 = 3.28e-05, x2 = 0.001799 | 0.0103 | 0.0116 | 0.0129 | 0.0144 | 0.0158
x1 = 3.46e-05, x2 = 0 | 0.0103 | 0.0116 | 0.0129 | 0.0145 | 0.0157
x1 = 3.552e-05, x2 = 0.0009002 | 0.0112 | 0.0126 | 0.0141 | 0.0157 | 0.0174
x1 = 3.863e-05, x2 = 0.001799 | 0.0115 | 0.0129 | 0.0144 | 0.016 | 0.0177
x1 = 4.108e-05, x2 = 0 | 0.0117 | 0.0131 | 0.0146 | 0.0161 | 0.0179
x1 = 4.186e-05, x2 = 0.0009001 | 0.0124 | 0.014 | 0.0157 | 0.0175 | 0.0194
x1 = 4.41e-05, x2 = 0.001799 | 0.0124 | 0.0138 | 0.0155 | 0.0172 | 0.0191
x1 = 4.811e-05, x2 = 0 | 0.0129 | 0.0144 | 0.0161 | 0.0179 | 0.0198
x1 = 4.838e-05, x2 = 0.0009001 | 0.0134 | 0.0151 | 0.017 | 0.0189 | 0.0211
x1 = 5.139e-05, x2 = 0.001799 | 0.0135 | 0.0152 | 0.0168 | 0.019 | 0.021
x1 = 5.388e-05, x2 = 0 | 0.0137 | 0.0154 | 0.0172 | 0.0191 | 0.0211
x1 = 5.509e-05, x2 = 0.0009001 | 0.0144 | 0.0162 | 0.018 | 0.0203 | 0.0225
x1 = 5.868e-05, x2 = 0.001799 | 0.0146 | 0.0162 | 0.018 | 0.0203 | 0.0225
x1 = 5.982e-05, x2 = 0 | 0.0145 | 0.0163 | 0.0182 | 0.0202 | 0.0224
x1 = 6.179e-05, x2 = 0.0009001 | 0.0152 | 0.0172 | 0.0192 | 0.0215 | 0.0239
x1 = 6.559e-05, x2 = 0 | 0.0153 | 0.0172 | 0.0192 | 0.0213 | 0.0236
x1 = 6.56e-05, x2 = 0.001799 | 0.0153 | 0.0171 | 0.0192 | 0.0216 | 0.0239
x1 = 6.813e-05, x2 = 0.0009001 | 0.0161 | 0.0181 | 0.0203 | 0.0227 | 0.0252
x1 = 7.081e-05, x2 = 0 | 0.016 | 0.018 | 0.02 | 0.0223 | 0.0246
x1 = 7.216e-05, x2 = 0.001799 | 0.0161 | 0.0181 | 0.0203 | 0.0227 | 0.0252
x1 = 7.484e-05, x2 = 0.0009001 | 0.0169 | 0.0191 | 0.0214 | 0.0239 | 0.0266
x1 = 7.604e-05, x2 = 0 | 0.0167 | 0.0187 | 0.0209 | 0.0232 | 0.0258
x1 = 7.908e-05, x2 = 0.001799 | 0.0169 | 0.019 | 0.0214 | 0.0238 | 0.0265
x1 = 8.072e-05, x2 = 0 | 0.0173 | 0.0194 | 0.0217 | 0.0241 | 0.0266

From the CheMixHub ionic liquid set
